Laboratory results reported in doi:10.1101/694877v2 (biorxiv, 2019).

Target: hAC2 (Homo sapiens, UniProt Q08462)
Experiment: stimulation of adenylate cyclase activity, HTRF cAMP assay
Format: biochemical
Settings: 25 μM forskolin alone, no Gsα, no serum; 1 mM ATP, 2 mM MgCl2, pH 7.5

hAC2, sequence (Q08462 whole entry): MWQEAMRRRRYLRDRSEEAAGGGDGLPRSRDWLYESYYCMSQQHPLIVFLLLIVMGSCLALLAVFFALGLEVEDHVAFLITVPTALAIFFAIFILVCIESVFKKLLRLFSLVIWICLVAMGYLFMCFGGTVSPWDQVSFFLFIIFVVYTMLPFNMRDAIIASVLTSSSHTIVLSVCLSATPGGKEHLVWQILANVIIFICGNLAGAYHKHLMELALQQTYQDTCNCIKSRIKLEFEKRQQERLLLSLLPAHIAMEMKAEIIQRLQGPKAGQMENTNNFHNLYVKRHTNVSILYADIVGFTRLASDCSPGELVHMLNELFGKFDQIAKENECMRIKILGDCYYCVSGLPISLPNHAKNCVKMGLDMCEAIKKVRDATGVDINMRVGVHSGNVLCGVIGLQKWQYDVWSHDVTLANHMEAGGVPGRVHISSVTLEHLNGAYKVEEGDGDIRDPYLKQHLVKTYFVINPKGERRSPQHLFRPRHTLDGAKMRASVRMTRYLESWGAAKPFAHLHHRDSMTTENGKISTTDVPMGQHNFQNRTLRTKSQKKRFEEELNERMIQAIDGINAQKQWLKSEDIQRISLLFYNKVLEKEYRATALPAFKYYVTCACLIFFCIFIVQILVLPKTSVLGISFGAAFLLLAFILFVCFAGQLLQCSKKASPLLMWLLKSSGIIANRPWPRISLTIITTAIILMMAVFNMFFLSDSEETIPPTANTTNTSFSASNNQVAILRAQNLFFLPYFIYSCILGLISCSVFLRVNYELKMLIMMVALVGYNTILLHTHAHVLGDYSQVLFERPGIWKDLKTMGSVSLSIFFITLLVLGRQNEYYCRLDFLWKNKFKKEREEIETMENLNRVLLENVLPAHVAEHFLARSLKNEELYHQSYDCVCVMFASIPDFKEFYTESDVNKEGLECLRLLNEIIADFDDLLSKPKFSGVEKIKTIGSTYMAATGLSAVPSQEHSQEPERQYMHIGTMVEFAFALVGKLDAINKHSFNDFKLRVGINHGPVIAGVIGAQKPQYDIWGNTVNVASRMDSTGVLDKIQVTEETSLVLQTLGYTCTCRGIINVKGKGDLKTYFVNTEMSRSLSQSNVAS

fold stimulation at 25 μM: ~ 2.4 fold
SMILES: C=C[C@@]1(C)CC(=O)[C@]2(O)[C@@]3(C)[C@@H](O)CCC(C)(C)[C@@H]3[C@H](O)[C@H](OC(C)=O)[C@@]2(C)O1 [forskolin]
